Reference: patent publication US11001561B2, “Pyrimidinone derivatives as SHP2 antagonists” (MERCK PATENT GMBH, priority 2019, dated 2021)

target: Full length SHP2 protein (Recombinant Human SHP-2) (Homo sapiens (Human), UniProt Q06124); assay: SHP2 biochemical assay (DiFMUP substrate, activating peptide IRSI_2pY); conditions: SHP-2 biochemical assay IC50 (μM), activating peptide IRSI_2pY 140 nM, DiFMUP, 60 min
Sequence (Q06124 2-593): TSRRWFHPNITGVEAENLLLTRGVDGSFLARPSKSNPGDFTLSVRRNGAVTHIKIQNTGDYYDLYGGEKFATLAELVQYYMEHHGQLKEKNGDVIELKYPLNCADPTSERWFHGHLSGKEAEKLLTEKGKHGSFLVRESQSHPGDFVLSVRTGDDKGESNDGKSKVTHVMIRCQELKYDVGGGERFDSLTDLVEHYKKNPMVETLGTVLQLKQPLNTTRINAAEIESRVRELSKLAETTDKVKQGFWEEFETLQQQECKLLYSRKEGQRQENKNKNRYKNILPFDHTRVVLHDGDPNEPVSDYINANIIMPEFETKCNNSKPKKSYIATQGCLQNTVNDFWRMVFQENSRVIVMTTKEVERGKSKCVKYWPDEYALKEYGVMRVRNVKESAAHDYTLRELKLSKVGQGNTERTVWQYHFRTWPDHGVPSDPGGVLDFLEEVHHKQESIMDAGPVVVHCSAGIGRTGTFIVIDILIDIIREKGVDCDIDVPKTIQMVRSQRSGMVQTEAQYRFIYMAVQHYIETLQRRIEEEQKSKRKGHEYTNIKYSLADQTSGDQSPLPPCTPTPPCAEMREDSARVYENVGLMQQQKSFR
Procedure: The inhibition of SHP2 by compounds of the invention was monitored using the surrogate substrate DiFMUP after protein activation by a peptide bearing two appropriately spaced phosphotyrosine. […] The generation of the DiFMU product by activated SHP2 was monitored through Fluorescence measurement with a PerkinElmer Envision reader. The inhibitor dose response curves were analyzed with Genedata Screener.

SMILES | IC50 [µM]
Cc1c(N[C@H]2CC[C@@H](N)CC2)ncn(-c2cccc(Cl)c2Cl)c1=O [Compound 85, 6-(4-Amino-cyclohexylamino)-3-(2,3-dichloro-phenyl)-5-methyl-3H-pyrimidin-4-one] | > 10
[2H]C([2H])([2H])c1c(N2CCC(C)(N)CC2)nc(C)n(-c2cccc(Cl)c2Cl)c1=O [Compound 94, 6-(4-amino-4-methylpiperidin-1-yl)-3-(2,3-dichlorophenyl)-5-(D3)methyl-2-methyl-3,4-dihydropyrimidin-4-one] | 1.4

same assay, conditions: activating peptide IRSI_2pY 140 nM, DiFMUP, 60 min; read-out: SHP-2 biochemical assay IC50

IC50 [µM] | SMILES
> 10 | Cc1c(N2CCC3(CC2)CO[C@@H](C)[C@H]3N)nc(C)n(-c2cccc3ncsc23)c1=O [Compound 84, 6-((3S,4S)-4-Amino-3-methyl-2-oxa-8-aza-spiro[4.5]dec-8-yl)-3-benzothiazol-7-yl-2,5-dimethyl-3H-pyrimidin-4-one]
4.6 | Cc1c(N2CCC3(CC2)CC3CN)nc(C)n(-c2cccc(Cl)c2Cl)c1=O (centres unmarked) [Compound 86, 6-[1-(aminomethyl)-6-azaspiro[2.5]octan-6-yl]-3-(2,3-dichlorophenyl)-2,5-dimethyl-3,4-dihydropyrimidin-4-one]
7.9 | Cc1c(N2CC(CN)C(C)(C)C2)nc(C)n(-c2cccc(Cl)c2Cl)c1=O (centres unmarked) [Compound 87, 6-[4-(aminomethyl)-3,3-dimethylpyrrolidin-1-yl]-3-(2,3-dichlorophenyl)-2,5-dimeihyl-3,4-dihydropyrimidin-4-one]
0.59 | Cc1c(N2CCC(CN)(CO)CC2)nc(C)n(-c2cccc(Cl)c2Cl)c1=O [Compound 88, 6-[4-(aminomethyl)-4-(hydroxymethyl)piperidin-1-yl]-3-(2,3-dichlorophenyl)-2,5-dimethyl-3,4-dihydropyrimidin-4-one]
1.3 | Cc1c(N2CCC3(CC2)CC3N)nc(C)n(-c2cccc(Cl)c2Cl)c1=O (centres unmarked) [Compound 89, 6-1-amino-6-azaspiro[2.5]octan-6-yl-3-(2,3-dichlorophenyl)-2,5-dimethyl-3,4-dihydropyrimidin-4-one]
3.9 | Cc1c(N2CCCC3(CCC3N)C2)nc(C)n(-c2cccc(Cl)c2Cl)c1=O (centres unmarked) [Compound 90, 6-1-amino-6-azaspiro[3.5]nonan-6-yl-3-(2,3-dichlorophenyl)-2,5-dimethyl-3,4-dihydropyrimidin-4-one]
2 | Cc1c(N2CCCC(CN)CC2)nc(C)n(-c2cccc(Cl)c2Cl)c1=O (centres unmarked) [Compound 91, 6-[4-(aminomethyl)azepan-1-yl]-3-(2,3-dichlorophenyl)-2,5-dimethyl-3,4-dihydropyrimidin-4-one]
16 | Cc1c(N2CCO[C@H](CN)C2)nc(C)n(-c2cccc(Cl)c2Cl)c1=O [Compound 92, 6-[(2R)-2-(aminomethyl)morpholin-4-yl]-3-(2,3-dichlorophenyl)-2,5-dimethyl-3,4-dihydropyrimidin-4-one]
12 | Cc1nc(N2CCC(C)(N)CC2)c(C2CC2)c(=O)n1-c1cccc(Cl)c1Cl [Compound 93, 6-(4-Amino-4-methyl-piperidin-1-yl)-5-cyclopropyl-3-(2,3-dichloro-phenyl)-2-methyl-3H-pyrimidin-4-one]
0.5 | COc1ccc(-n2c(C)nc(N3CCC4(CC3)CO[C@@H](C)[C@H]4N)c(C)c2=O)c(Cl)c1Cl [Compound 98, 6-((3S,4S)-4-Amino-3-methyl-2-oxa-8-aza-spiro[4.5]dec-8-yl)-3-(2,3-dichloro-4-methoxy-phenyl)-2,5-dimethyl-3H-pyrimidin-4-one]
5.8 | Cc1c(N2CCN3CC(N)CC3C2)nc(C)n(-c2cccc(Cl)c2Cl)c1=O (centres unmarked) [Compound 100, (3M)-6-7-amino-octahydropyrrolo[1,2-a]pyrazin-2-yl-3-(2,3-dichlorophenyl)-2,5-dimethyl-3,4-dihydropyrimidin-4-one]
7.3 | Cc1ccc(Cl)c(Cl)c1-n1c(C)nc(N2CCC3(CC2)CO[C@@H](C)[C@H]3N)c(C)c1=O [Compound 102, 6-((3S,4S)-4-Amino-3-methyl-2-oxa-8-aza-spiro[4.5]dec-8-yl)-3-(2,3-dichloro-6-methyl-phenyl)-2,5-dimethyl-3H-pyrimidin-4-one]
